One compound from patent US9073858B2, “Methods of targeted drug development” (priority 2010, dated 2015) can be followed below.

For assay [1], the system named is epithelial carcinoma A431 cell line. The experiment in a line: MTT Cell Proliferation Assay, A431 cell line. The following applies: for IC50: Homo sapiens. Format: cell-based. The method, boiled down:
(§1)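 Cells plated overnight, then exposed 3 days at 37 °C, 5% CO2 to compound in growth medium with 0.5% FBS and 0.5% DMSO final (0.5% DMSO as control).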

The test system of a further assay is MDBK line. The experiment in a line: MTT Cell Proliferation Assay, MDBK line. Format: cell-based, bovine. To be noted: Bos taurus, MDBK. In outline: as §1
A further assay has as its target T1, EGFR (Homo sapiens, UniProt P00533).
T1 construct: endogenous in cells; host or cells: A431 cells (ATCC CRL-1555)
Nature of the assay: EGFR in-cell Western (ICW) screening protocol. The format is cell-based. More on the design: unit not given here. To be noted: initial screen. In outline:
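Serum-starved cells treated with compound 4 h at 37 °C, then stimulated with EGF (20 or 0 ng/ml solution added) in its continued presence. In-cell Western on fixed cells: phospho-EGFR (800 channel) normalised to total EGFR (700 channel), % inhibition calculated against EGF-stimulated and unstimulated no-compound wells.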

Read-outs that look alike come from different tables or passages of the source.

T1 sequence (P00533 25-1210): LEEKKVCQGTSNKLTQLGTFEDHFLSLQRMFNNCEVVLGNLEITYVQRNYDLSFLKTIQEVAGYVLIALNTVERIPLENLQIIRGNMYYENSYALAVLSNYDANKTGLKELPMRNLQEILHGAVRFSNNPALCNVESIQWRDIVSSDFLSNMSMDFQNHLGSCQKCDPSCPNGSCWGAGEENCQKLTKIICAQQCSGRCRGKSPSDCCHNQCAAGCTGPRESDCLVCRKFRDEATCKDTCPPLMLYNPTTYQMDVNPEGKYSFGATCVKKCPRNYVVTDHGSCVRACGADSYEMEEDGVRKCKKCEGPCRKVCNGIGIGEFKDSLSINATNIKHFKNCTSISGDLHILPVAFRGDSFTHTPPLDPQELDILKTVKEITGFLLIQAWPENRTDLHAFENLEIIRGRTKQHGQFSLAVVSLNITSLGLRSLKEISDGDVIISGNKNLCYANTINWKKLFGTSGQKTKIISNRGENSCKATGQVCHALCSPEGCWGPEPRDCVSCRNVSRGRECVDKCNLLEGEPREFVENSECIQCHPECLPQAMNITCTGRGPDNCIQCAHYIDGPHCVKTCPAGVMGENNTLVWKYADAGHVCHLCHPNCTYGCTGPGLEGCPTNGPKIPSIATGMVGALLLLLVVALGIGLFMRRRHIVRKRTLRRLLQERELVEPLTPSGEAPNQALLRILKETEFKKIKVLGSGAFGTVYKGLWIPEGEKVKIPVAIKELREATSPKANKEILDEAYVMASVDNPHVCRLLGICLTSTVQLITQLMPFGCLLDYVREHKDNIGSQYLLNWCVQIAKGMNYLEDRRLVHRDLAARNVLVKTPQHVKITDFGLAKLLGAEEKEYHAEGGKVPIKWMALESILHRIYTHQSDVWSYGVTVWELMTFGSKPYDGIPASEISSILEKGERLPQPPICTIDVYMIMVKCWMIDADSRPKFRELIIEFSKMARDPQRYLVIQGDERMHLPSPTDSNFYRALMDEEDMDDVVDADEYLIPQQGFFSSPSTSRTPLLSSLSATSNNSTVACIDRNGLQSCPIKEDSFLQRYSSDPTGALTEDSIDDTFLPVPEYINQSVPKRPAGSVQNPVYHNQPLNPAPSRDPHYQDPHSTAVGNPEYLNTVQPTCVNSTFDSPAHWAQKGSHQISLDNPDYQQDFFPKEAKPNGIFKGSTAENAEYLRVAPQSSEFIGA

For the compound `Oc1c(C(Nc2ccccn2)c2ccc(C(F)(F)F)cc2)ccc2cccnc12` (stereo not shown) [compound 10460], the “MTT (10 Point follow-up) ratio” value in assay [1] (10 point follow-up, value in brackets, numerically MDBK over A431) came out at 1.34. Further, in assay [1] (72 h, value in brackets, numerically MDBK value over A431 value), the “MTT-72 h A431/MDBK (ratio)” value is 1.84. The IC50 in assay [1] (A-431, 10 point follow-up, first value of pair, read-out: MTT (10 Point follow-up) A431) stood at 279 nM; in assay [1] (A-431, 72 h, 72 h, first value of A431/MDBK pair, read-out: MTT-72 h A431), 290 nM; in the assay with MDBK line (10 point follow-up, second value of pair, read-out: MTT (10 Point follow-up) MDBK), 375 nM; in the assay on MDBK line (72 h, second value of A431/MDBK pair, read-out: MTT-72 h MDBK) it was 530 nM. In addition, the “ICW Screen” value against EGFR is listed as 23.17.
